Values quoted from earlier work in PMC6311893, “Computational prediction of plasma protein binding of cyclic peptides from small molecule experimental data using sparse modeling techniques” (BMC Bioinformatics, 2018).
Where two headings read alike, the source gives them in different places.

Test system: plasma protein
Details: cited from earlier work
[1] = fraction bound to plasma protein, small molecule dataset, sheet 1-SM, ref Ingle et al.
[2] = fraction bound to plasma protein, small molecule dataset, sheet 1-SM (Set Dte = test, Dtr = training), ref Ingle et al.
[3] = fraction bound to plasma protein, small molecule dataset, sheet 1-SM, Set Dtr, ref Ingle et al.

| SMILES | PPB (fb) [1] | PPB (fb) [2] | further results |
| --- | --- | --- | --- |
| CCCC(C)C1(CC)C(=O)NC(=S)NC1=O (stereo not drawn) [Thiopental] |  |  | PPB (fb) (plasma): 0.84 |
| S=P(N1CC1)(N1CC1)N1CC1 [Thiotepa] | 0.1 |  |  |
| Cc1ccsc1C(=CCCN1CCC[C@@H](C(=O)O)C1)c1sccc1C [Tiagabine] |  | 0.96 |  |
| CC1(C)S[C@@H]2[C@H](NC(=O)[C@H](C(=O)O)c3ccsc3)C(=O)N2[C@H]1C(=O)O [Ticarcillin] | 0.51 |  |  |
| CC(C)(C)NC[C@H](O)COc1nsnc1N1CCOCC1 [Timolol] | 0.1 |  |  |
| CCS(=O)(=O)CCn1c([N+](=O)[O-])cnc1C [Tinidazole] | 0.15 |  |  |
| CCOC(=O)c1c(N)sc2c1CCN(Cc1ccccc1)C2 [Tinoridine] | 0.92 |  |  |
| Nc1n[n+]([O-])c2ccccc2[n+]1[O-] [Tirapazamine] | 0.19 |  |  |
| Clc1ccc2nsnc2c1NC1=NCCN1 [Tizanidine] | 0.3 |  |  |
| NC[C@H]1O[C@H](O[C@H]2[C@H](O)[C@@H](O[C@H]3O[C@H](CO)[C@@H](O)[C@H](N)[C@H]3O)[C@H](N)C[C@@H]2N)[C@H](N)C[C@@H]1O [Tobramycin] |  | 0.05 |  |
| Cc1cccc(C)c1NC(=O)C(C)N (stereo not drawn) [Tocainide] | 0.13 |  |  |
| Cc1ccccc1OCC(O)CNCCOc1ccc(C(N)=O)cc1 (stereo not drawn) [Tolamolol] | 0.91 |  |  |
| Cc1cccc(N2CC(CO)OC2=O)c1 (stereo not drawn) [Toloxatone] |  |  | PPB (fb) (plasma): 0.5 |
| Cc1ccc(O)c([C@H](CCN(C(C)C)C(C)C)c2ccccc2)c1 [Tolterodine] | 0.96 |  |  |
| C[C@@H](O)[C@H]1C(=O)N2C(C(=O)O)=C(S[C@H]3C[C@@H](C(=O)N4CC[C@H](NC(=O)CNC(=N)N)C4)N(C)C3)[C@H](C)[C@H]12 [Tomopenem] |  | 0.09 |  |
| CCC(O)(C(=O)O)c1cc2n(c(=O)c1CO)Cc1cc3c(CN(C)C)c(O)ccc3nc1-2 (stereo not drawn) [Topotecan Carboxylic Acid] |  |  | PPB (fb) [3]: 0.07 |
| CC[C@@]1(O)C(=O)OCc2c1cc1n(c2=O)Cc2cc3c(CN(C)C)c(O)ccc3nc2-1 [Topotecan] | 0.25 |  |  |
| Cc1cccc(Nc2ccncc2S(=O)(=O)NC(=O)NC(C)C)c1 [Torasemide] | 0.99 |  |  |
| COc1cc2c(cc1O)CCNC21CSC2c3c(OC(C)=O)c(C)c4c(c3C(COC1=O)N1C(O)C3Cc5cc(C)c(OC)c(O)c5C(C21)N3C)OCO4 (stereo not drawn) [Trabectedin (ET-743__ Yondelis)] |  |  | PPB (fb) [3]: 0.94 |
| COc1cccc(C2(O)CCCCC2CN(C)C)c1 (stereo not drawn) [Tramadol] |  |  | PPB (fb) (plasma): 0.16 |
| C[C@@H]([C@@H](O)c1ccc(O)cc1)N1CCC(O)(c2ccccc2)CC1 [Traxoprodil] |  | 0.37 |  |
| CC1(C)O[C@@H]2C[C@H]3[C@@H]4CCC5=CC(=O)C=C[C@]5(C)[C@@]4(F)[C@@H](O)C[C@]3(C)[C@]2(C(=O)CO)O1 [Triamcinolone Acetonide] | 0.8 |  |  |
| Nc1nc(N)c2nc(-c3ccccc3)c(N)nc2n1 [Triamterene] | 0.59 |  |  |
| Cc1nnc2n1-c1ccc(Cl)cc1C(c1ccccc1Cl)=NC2 [Triazolam] |  |  | PPB (fb) (plasma): 0.89 |
| COc1cc(Cc2cnc(N)nc2N)cc(OC)c1OC [Trimethoprim] | 0.46 |  |  |

| SMILES | PPB (fb) [1] | PPB (fb) [2] | further results |
| --- | --- | --- | --- |
| COc1cc(NCc2ccc3nc(N)nc(N)c3c2C)cc(OC)c1OC [Trimetrexate] | 0.96 |  |  |
| CC(CN(C)C)CN1c2ccccc2CCc2ccccc21 (stereo not drawn) [Trimipramine] | 0.95 |  |  |
| N[C@@H]1[C@H]2CN(c3nc4c(cc3F)c(=O)c(C(=O)O)cn4-c3ccc(F)cc3F)C[C@@H]12 [Trovafloxacin] | 0.81 |  |  |
| N[C@@H](Cc1c[nH]c2ccccc12)C(=O)O [Tryptophan] |  |  | PPB (fb) [3]: 0.8 |
| CCCC(CCC)C(=O)O [Valproic Acd] | 0.9 |  |  |
| CCCCC(=O)N(Cc1ccc(-c2ccccc2-c2nnn[nH]2)cc1)[C@H](C(=O)O)C(C)C [Valsartan] | 0.95 |  |  |
| C/C=C/C[C@@H](C)C(=O)[C@H]1C(=O)N[C@@H](C(C)C)C(=O)N(C)CC(=O)N(C)[C@@H](CC(C)C)C(=O)N[C@@H](C(C)C)C(=O)N(C)[C@@H](CC(C)C)C(=O)N[C@@H](C)C(=O)N[C@H](C)C(=O)N(C)[C@@H](CC(C)C)C(=O)N(C)[C@@H](CC(C)C)C(=O)N(C)[C@@H](C(C)C)C(=O)N1C [Valspodar] | 0.98 |  |  |
| CCCc1nc(C)c2c(=O)[nH]c(-c3cc(S(=O)(=O)N4CCN(CC)CC4)ccc3OCC)nn12 [Vardenafil] | 0.95 |  |  |
| COc1ccc(C(CN(C)C)C2(O)CCCCC2)cc1 (stereo not drawn) [Venlafaxine] |  |  | PPB (fb) (plasma): 0.27 |
| CC[C@]1(O)C[C@H]2CN(CCc3c([nH]c4ccccc34)[C@@](C(=O)OC)(c3cc4c(cc3OC)N(C=O)[C@H]3[C@@](O)(C(=O)OC)[C@H](OC(C)=O)[C@]5(CC)C=CCN6CC[C@]43[C@@H]65)C2)C1 [Vincristine] | 0.6 |  |  |
| C[C@@H](c1ncncc1F)[C@](O)(Cn1cncn1)c1ccc(F)cc1F [Voriconazole] | 0.58 |  |  |
| O=C(NCCNCC(O)COc1ccc(O)cc1)N1CCOCC1 (stereo not drawn) [Xamoterol] | 0.03 |  |  |
| CCN(C(C)=O)c1cccc(-c2ccnc3c(C#N)cnn23)c1 [Zaleplon] |  |  | PPB (fb) (plasma): 0.6 |
| CC(=O)N[C@H]1[C@H]([C@H](O)[C@H](O)CO)OC(C(=O)O)=C[C@@H]1N=C(N)N [Zanamivir] | 0.09 |  |  |
| Cc1cn([C@H]2C[C@H](N=[N+]=[N-])[C@@H](CO)O2)c(=O)[nH]c1=O [Zidovudine] |  | 0.28 |  |
| O=C1Cc2cc(CCN3CCN(c4nsc5ccccc45)CC3)c(Cl)cc2N1 [Ziprasidone] | 0.99 |  |  |
| O=P(O)(O)C(O)(Cn1ccnc1)P(=O)(O)O [Zoledronic Acid] | 0.22 |  |  |
| CN(C)CCc1c[nH]c2ccc(C[C@H]3COC(=O)N3)cc12 [Zolmitriptan] | 0.25 |  |  |
| CC(=O)NCCCS(=O)(=O)O [acamprosate] |  |  | PPB (fb) (plasma): 0.03 |
| C[C@H]1O[C@H](O[C@H]2[C@H](O)[C@@H](O)[C@@H](O[C@H]3[C@H](O)[C@@H](O)C(O)O[C@@H]3CO)O[C@@H]2CO)[C@H](O)[C@@H](O)[C@@H]1N[C@H]1C=C(CO)[C@@H](O)[C@H](O)[C@H]1O (stereo partly drawn) [acarbose] |  | 0.15 |  |
| O=C(O)COC(=O)Cc1ccccc1Nc1c(Cl)cccc1Cl [aceclofenac] |  | 0.99 |  |
| COc1ccc2c(c1)c(CC(=O)OCC(=O)O)c(C)n2C(=O)c1ccc(Cl)cc1 [acemetacin] |  | 0.9 |  |
| CC(=O)Nc1ccccc1 [acetanilide] |  | 0.07 |  |
| CC(=O)c1ccc(S(=O)(=O)NC(=O)NC2CCCCC2)cc1 [acetohexamide] |  | 0.96 |  |
| CC(=O)OC1CC(OC2C(O)CC(OC3C(O)CC(OC4CCC5(C)C(CCC6C5CCC5(C)C(C7=CC(=O)OC7)CCC65O)C4)OC3C)OC2C)OC(C)C1O (stereo not drawn) [acetyldigitoxin] |  |  | PPB (fb) (plasma): 0.8 |

| SMILES | PPB (fb) [1] | PPB (fb) [2] | further results |
| --- | --- | --- | --- |
| Cc1cnc(C(=O)O)c[n+]1[O-] [acipimox] |  | 0.02 |  |
| COc1cc(C)c(/C=C/C(C)=C/C=C/C(C)=C/C(=O)O)c(C)c1C [acitretin] |  |  | PPB (fb): 0.99 |
| CC[C@@]1(O)C[C@H](O[C@H]2C[C@H](N(C)C)[C@H](O[C@H]3C[C@H](O)[C@H](O[C@H]4CCC(=O)[C@H](C)O4)[C@H](C)O3)[C@H](C)O2)c2c(cc3c(c2O)C(=O)c2c(O)cccc2C3=O)[C@H]1C(=O)OC [aclarubicin] |  |  | PPB (fb) (plasma): 0.43 |
| O=C(C[S+]([O-])C(c1ccccc1)c1ccccc1)NO (stereo not drawn) [adrafinil] |  |  | PPB (fb) (plasma): 0.8 |
| CCC[S+]([O-])c1ccc2[nH]c(NC(=O)OC)nc2c1 (stereo not drawn) [albendazole sulfoxide] |  |  | PPB (fb) (plasma): 0.7 |
| CCCSc1ccc2nc(NC(=O)OC)[nH]c2c1 [albendazole] |  | 0.7 |  |
| C=CCOc1ccc(CC(=O)O)cc1Cl [alclofenac] |  | 0.99 |  |
| C=CC[N@@+]12CC[C@@]34c5ccccc5N5/C=C6/[C@H]7C[C@H]8[C@@]9(CC[N@@+]8(CC=C)C/C7=C/CO)c7ccccc7N(/C=C(/[C@@H](C[C@@H]31)/C(=C\CO)C2)[C@H]54)[C@@H]69 [alcuronium] |  |  | PPB (fb) (plasma): 0.4 |
| CC12CC(=O)C3C(CCC4CC(O)CCC43C)C1CCC2C(=O)CO (stereo not drawn) [alfadolone] |  | 0.3 |  |
| COc1cc2nc(N(C)CCCNC(=O)C3CCCO3)nc(N)c2cc1OC (stereo not drawn) [alfuzosin] |  | 0.9 |  |
| C=CCNc1nc(NCC=C)nc(N2CCN(C(c3ccc(F)cc3)c3ccc(F)cc3)CC2)n1 [almitrine] |  | 0.99 |  |
| CC(=O)O[C@H]1C[C@H](O[C@H]2[C@@H](O)C[C@H](O[C@H]3[C@@H](O)C[C@H](O[C@H]4CC[C@@]5(C)[C@H](CC[C@@H]6[C@@H]5C[C@@H](O)[C@]5(C)[C@@H](C7=CC(=O)OC7)CC[C@]65O)C4)O[C@@H]3C)O[C@@H]2C)O[C@H](C)[C@H]1O [alpha-acetyldigoxin] |  |  | PPB (fb) (plasma): 0.25 |
| CCCCC[C@H](O)/C=C/[C@H]1[C@H](O)CC(=O)[C@@H]1CCCCCCC(=O)O [alprostadil] |  | 0.92 |  |
| CN(C)c1nc(N(C)C)nc(N(C)C)n1 [altretamine] |  | 0.94 |  |
| Nc1c(Br)cc(Br)cc1CN[C@H]1CC[C@H](O)CC1 [ambroxol] |  | 0.9 |  |
| CC1(C)S[C@@H]2[C@H](/N=C/N3CCCCCC3)C(=O)N2[C@H]1C(=O)O [amdinocillin] |  | 0.14 |  |
| Cc1c(N(C)C)c(=O)n(-c2ccccc2)n1C [amidopyrine] |  | 0.3 |  |
| NCCCNCCSP(=O)(O)O [amifostine] |  | 0.04 |  |
| N=C(N)NC(=O)c1nc(Cl)c(N)nc1N [amiloride] |  | 0.4 |  |
| CCC1(c2ccc(N)cc2)CCC(=O)NC1=O (stereo not drawn) [aminoglutethimide] |  | 0.24 |  |
| CCN1CCCC1CNC(=O)c1cc(S(=O)(=O)CC)c(N)cc1OC (stereo not drawn) [amisulpride] |  | 0.16 |  |
| CC(=O)Nc1ccc(/C=N/NC(N)=S)cc1 [amithiozone] |  | 0.95 |  |
| CCN(CC)Cc1cc(Nc2ccnc3cc(Cl)ccc23)ccc1O [amodiaquine] |  | 0.9 |  |
| COc1ccccc1OCCNCC(O)c1ccc(C)c(S(N)(=O)=O)c1 (stereo not drawn) [amosulalol] |  | 0.98 |  |
| Clc1ccc2c(c1)C(N1CCNCC1)=Nc1ccccc1O2 [amoxapine] |  | 0.9 |  |
